{
  "source": "paper PMC5218480",
  "about": "(PLoS ONE, 2017)",
  "system": "MV-4-11 cells",
  "assay": "Gene expression microarray analysis (Affymetrix PrimeView) and GSEA",
  "format": "cell-based, human",
  "parameters": "RFU PODN (11730768_x_at) / Fold change /veh PODN (11730768_x_at) / RFU LINC00158 (11744669_a_at) / Fold change /veh LINC00158 (11744669_a_at) / RFU DUSP10 (11751237_a_at) / Fold change /veh DUSP10 (11751237_a_at) / RFU ID3 (11757404_x_at) / Fold change /veh ID3 (11757404_x_at) / RFU PLEKHG5 (11737974_s_at) / Fold change /veh PLEKHG5 (11737974_s_at) / RFU LRRC4B (11730491_at) / Fold change /veh LRRC4B (11730491_at) / RFU GIMAP4 (11747438_a_at) / Fold change /veh GIMAP4 (11747438_a_at) / RFU KRT8 (11758183_x_at) / Fold change /veh KRT8 (11758183_x_at) / RFU CNN1 (11734310_a_at) / Fold change /veh CNN1 (11734310_a_at) / RFU VPS37D (11726825_at) / Fold change /veh VPS37D (11726825_at) / RFU C10orf10 (11716522_x_at) / Fold change /veh C10orf10 (11716522_x_at) / RFU KIR2DL2 /// KIR2DL4 /// KIR2DL5A /// KIR2DL5B /// KIR2DS1 /// KIR2DS2 /// KIR2DS3 /// KIR2DS4 /// KIR3DL3 /// KIR3DL3 /// KIR3DS1 (11738374_at) / Fold change /veh KIR2DL2 /// KIR2DL4 /// KIR2DL5A /// KIR2DL5B /// KIR2DS1 /// KIR2DS2 /// KIR2DS3 /// KIR2DS4 /// KIR3DL3 /// KIR3DL3 /// KIR3DS1 (11738374_at) / RFU C1QL1 (11718748_at) / Fold change /veh C1QL1 (11718748_at) / RFU TMPRSS4 (11747572_a_at) / Fold change /veh TMPRSS4 (11747572_a_at) / RFU HAMP (11756126_x_at) / Fold change /veh HAMP (11756126_x_at) / RFU RNFT2 (11725882_a_at) / Fold change /veh RNFT2 (11725882_a_at) / RFU NR4A2 (11747474_a_at) / Fold change /veh NR4A2 (11747474_a_at) / RFU ABCC12 (11746883_a_at) / Fold change /veh ABCC12 (11746883_a_at) / RFU TMEM136 (11760407_x_at) / Fold change /veh TMEM136 (11760407_x_at) / RFU CLDN22 /// WWC2 (11732394_at) / Fold change /veh CLDN22 /// WWC2 (11732394_at) / RFU HLA-DPB1 (11760878_x_at) / Fold change /veh HLA-DPB1 (11760878_x_at) / RFU SPINT1 (11716480_a_at) / Fold change /veh SPINT1 (11716480_a_at) / RFU GAP43 (11754022_s_at) / Fold change /veh GAP43 (11754022_s_at) / RFU A4GNT (11735810_at) / Fold change /veh A4GNT (11735810_at) / RFU PRB3 (11715151_x_at) / Fold change /veh PRB3 (11715151_x_at) / RFU TUBB4B (11761932_at) / Fold change /veh TUBB4B (11761932_at) / RFU CAPN14 (11732068_a_at) / Fold change /veh CAPN14 (11732068_a_at) / RFU TMCC2 (11721928_a_at) / Fold change /veh TMCC2 (11721928_a_at) / RFU IRGQ (11745062_a_at) / Fold change /veh IRGQ (11745062_a_at) / RFU FAM174B (11720279_a_at) / Fold change /veh FAM174B (11720279_a_at) / RFU TMPRSS4 (11748680_a_at) / Fold change /veh TMPRSS4 (11748680_a_at) / RFU FAM212B (11763350_a_at) / Fold change /veh FAM212B (11763350_a_at) / RFU PLEKHG5 (11743358_a_at) / Fold change /veh PLEKHG5 (11743358_a_at) / RFU ZSCAN30 (11745921_a_at) / Fold change /veh ZSCAN30 (11745921_a_at) / RFU CMKLR1 (11741424_a_at) / Fold change /veh CMKLR1 (11741424_a_at) / RFU LOC101060620 /// MAPK8IP1 (11723275_at) / Fold change /veh LOC101060620 /// MAPK8IP1 (11723275_at) / RFU SPTSSB (11747773_x_at) / Fold change /veh SPTSSB (11747773_x_at) / RFU PRSS12 (11739890_at) / Fold change /veh PRSS12 (11739890_at) / RFU BIN1 (11741810_x_at) / Fold change /veh BIN1 (11741810_x_at) / RFU WNT11 (11732464_a_at) / Fold change /veh WNT11 (11732464_a_at) / RFU C10orf10 (11716521_a_at) / Fold change /veh C10orf10 (11716521_a_at) / RFU C5orf56 (11738089_at) / Fold change /veh C5orf56 (11738089_at) / RFU CYB561 (11721691_x_at) / Fold change /veh CYB561 (11721691_x_at) / RFU ANKRD19P (11752326_a_at) / Fold change /veh ANKRD19P (11752326_a_at) / RFU OR2T12 /// OR2T33 /// OR2T8 (11738714_s_at) / Fold change /veh OR2T12 /// OR2T33 /// OR2T8 (11738714_s_at) / RFU VCAN (11748164_a_at) / Fold change /veh VCAN (11748164_a_at) / RFU JSRP1 (11732532_at) / Fold change /veh JSRP1 (11732532_at) / RFU KRTAP10-11 (11738290_x_at) / Fold change /veh KRTAP10-11 (11738290_x_at) / RFU MYO3A (11730013_a_at) / Fold change /veh MYO3A (11730013_a_at) / RFU EBF3 (11725865_a_at) / Fold change /veh EBF3 (11725865_a_at) / RFU CAMK2N1 (11719241_x_at) / Fold change /veh CAMK2N1 (11719241_x_at) / RFU C5orf56 (11738088_a_at) / Fold change /veh C5orf56 (11738088_a_at) / RFU OLFML3 (11715873_a_at) / Fold change /veh OLFML3 (11715873_a_at) / RFU LOC100653217 /// NTM (11731650_a_at) / Fold change /veh LOC100653217 /// NTM (11731650_a_at) / RFU MAPK11 (11762145_a_at) / Fold change /veh MAPK11 (11762145_a_at) / RFU FIZ1 (11724087_x_at) / Fold change /veh FIZ1 (11724087_x_at) / RFU OASL (11726364_x_at) / Fold change /veh OASL (11726364_x_at) / RFU SOX15 (11748057_x_at) / Fold change /veh SOX15 (11748057_x_at) / RFU CD79A (11719716_a_at) / Fold change /veh CD79A (11719716_a_at) / RFU HIST1H1D (11736915_at) / Fold change /veh HIST1H1D (11736915_at) / RFU CASKIN2 (11723855_a_at) / Fold change /veh CASKIN2 (11723855_a_at) / RFU LOC730098 (11760151_x_at) / Fold change /veh LOC730098 (11760151_x_at) / RFU OR4N2 (11742367_at) / Fold change /veh OR4N2 (11742367_at) / RFU PRRT2 (11749266_a_at) / Fold change /veh PRRT2 (11749266_a_at) / RFU SNX32 (11753110_a_at) / Fold change /veh SNX32 (11753110_a_at) / RFU CDHR5 (11726645_a_at) / Fold change /veh CDHR5 (11726645_a_at) / RFU RCAN1 (11760418_a_at) / Fold change /veh RCAN1 (11760418_a_at) / RFU FAM167A (11723789_a_at) / Fold change /veh FAM167A (11723789_a_at) / RFU FAM26E (11764081_at) / Fold change /veh FAM26E (11764081_at) / RFU ISYNA1 (11749810_s_at) / Fold change /veh ISYNA1 (11749810_s_at) / RFU ACY1 (11761880_at) / Fold change /veh ACY1 (11761880_at) / RFU 11764098_at / Fold change /veh 11764098_at / RFU SAMD14 (11745864_x_at) / Fold change /veh SAMD14 (11745864_x_at) / RFU NPB (11741838_a_at) / Fold change /veh NPB (11741838_a_at) / RFU TMPRSS6 (11731388_a_at) / Fold change /veh TMPRSS6 (11731388_a_at) / RFU KRTAP10-2 (11738614_at) / Fold change /veh KRTAP10-2 (11738614_at) / RFU ARHGAP8 /// PRR5-ARHGAP8 (11727945_x_at) / Fold change /veh ARHGAP8 /// PRR5-ARHGAP8 (11727945_x_at) / RFU KRTAP5-7 /// NADSYN1 (11734609_at) / Fold change /veh KRTAP5-7 /// NADSYN1 (11734609_at) / RFU RASL12 (11751679_a_at) / Fold change /veh RASL12 (11751679_a_at) / RFU CDKN2B (11736163_a_at) / Fold change /veh CDKN2B (11736163_a_at) / RFU PRF1 (11729649_at) / Fold change /veh PRF1 (11729649_at) / RFU, ZNF638 /// ZNF638-IT1 / Fold change vs veh, ZNF638 /// ZNF638-IT1 / RFU, PANK3 / Fold change vs veh, PANK3 / RFU, SH3YL1 / Fold change vs veh, SH3YL1 / RFU, ZEB2 / Fold change vs veh, ZEB2 / RFU, NRIP1 / Fold change vs veh, NRIP1 / RFU, PTTG1IP / Fold change vs veh, PTTG1IP / RFU, CAPN2 / Fold change vs veh, CAPN2 / RFU, MED14 / Fold change vs veh, MED14 / RFU, SNORA58 / Fold change vs veh, SNORA58 / RFU, C1orf63 / Fold change vs veh, C1orf63 / RFU, LRRFIP1 / Fold change vs veh, LRRFIP1 / RFU, NDUFAF7 / Fold change vs veh, NDUFAF7 / RFU, SLC12A2 / Fold change vs veh, SLC12A2 / RFU, IBTK / Fold change vs veh, IBTK / RFU, ESF1 / Fold change vs veh, ESF1 / Fold change vs veh, TMEM50B / RFU, TAOK1 / Fold change vs veh, TAOK1 / RFU, ACBD3 / Fold change vs veh, ACBD3 / RFU, TMA16 / Fold change vs veh, TMA16 / RFU, RWDD3 / Fold change vs veh, RWDD3 / RFU, BCAT1 / Fold change vs veh, BCAT1 / RFU, EDEM3 / Fold change vs veh, EDEM3 / RFU, TMEM33 / Fold change vs veh, TMEM33 / RFU, WDR75 / Fold change vs veh, WDR75 / RFU, AHCTF1 / Fold change vs veh, AHCTF1 / RFU, TFRC / Fold change vs veh, TFRC / RFU, ZDHHC17 / Fold change vs veh, ZDHHC17 / RFU, NOM1 / Fold change vs veh, NOM1 / RFU, ARL8B / Fold change vs veh, ARL8B / RFU, ZBTB11 / Fold change vs veh, ZBTB11 / RFU, TAMM41 / Fold change vs veh, TAMM41 / RFU, KIAA1704 /// LOC100996395 / Fold change vs veh, KIAA1704 /// LOC100996395 / RFU, ING1 / Fold change vs veh, ING1 / RFU, TRMT61B / Fold change vs veh, TRMT61B / RFU, FUBP3 / Fold change vs veh, FUBP3 / RFU, TP53 / Fold change vs veh, TP53 / RFU, TNKS2 / Fold change vs veh, TNKS2 / RFU, ZFP14 / Fold change vs veh, ZFP14 / RFU, ACTR2 / Fold change vs veh, ACTR2 / RFU, PPP3R1 / Fold change vs veh, PPP3R1 / RFU, PIK3R1 / Fold change vs veh, PIK3R1 / RFU, HNRNPA1 / Fold change vs veh, HNRNPA1 / RFU, RNF170 / Fold change vs veh, RNF170 / RFU, ZNF28 / Fold change vs veh, ZNF28 / RFU, RNGTT / Fold change vs veh, RNGTT / RFU, OGT / Fold change vs veh, OGT / RFU, BRD1 / Fold change vs veh, BRD1 / RFU, MARS / Fold change vs veh, MARS / RFU, ZNF655 / Fold change vs veh, ZNF655 / RFU, FAHD1 / Fold change vs veh, FAHD1 / RFU, BDP1 / Fold change vs veh, BDP1 / RFU, LRRCC1 / Fold change vs veh, LRRCC1 / RFU, ARID1A / Fold change vs veh, ARID1A / RFU, ZNF146 / Fold change vs veh, ZNF146 / RFU, ZNF330 / Fold change vs veh, ZNF330 / RFU, GPN3 / Fold change vs veh, GPN3 / RFU, C9orf123 / Fold change vs veh, C9orf123 / RFU, N4BP2L2 / Fold change vs veh, N4BP2L2 / RFU, ARFIP1 / Fold change vs veh, ARFIP1 / RFU, FAM179B / Fold change vs veh, FAM179B / RFU, BCL10 / Fold change vs veh, BCL10 / RFU, UHRF1BP1L / Fold change vs veh, UHRF1BP1L / RFU, BET1 / Fold change vs veh, BET1 / RFU, CNOT2 / Fold change vs veh, CNOT2 / RFU, ZNF268 / Fold change vs veh, ZNF268 / Fold change vs veh, ZNF507 / RFU, DGCR2 / Fold change vs veh, DGCR2 / RFU, WDSUB1 / Fold change vs veh, WDSUB1 / Fold change vs veh, HSP90B1 /// MIR3652 / RFU, ADSS / Fold change vs veh, ADSS / RFU, GK / Fold change vs veh, GK / RFU, ZNF148 / Fold change vs veh, ZNF148 / RFU, TAF9 / Fold change vs veh, TAF9 / RFU, SLC1A5 / Fold change vs veh, SLC1A5 / RFU, SLMO2 / Fold change vs veh, SLMO2 / RFU, ABCC4 / Fold change vs veh, ABCC4 / RFU, LOC101060439 /// RAP1B / Fold change vs veh, LOC101060439 /// RAP1B / RFU, RFX7 / Fold change vs veh, RFX7 / RFU, GTPBP10 / Fold change vs veh, GTPBP10 / RFU, CNEP1R1 / Fold change vs veh, CNEP1R1 / RFU, BIVM-ERCC5 /// ERCC5 / Fold change vs veh, BIVM-ERCC5 /// ERCC5 / RFU, ILF3 / Fold change vs veh, ILF3 / RFU 11762660_at / Fold change /veh 11762660_at / RFU VCAN (11757783_s_at) / Fold change /veh VCAN (11757783_s_at) / RFU DDX43 (11728927_at) / Fold change /veh DDX43 (11728927_at) / RFU KRT8 (11758188_x_at) / Fold change /veh KRT8 (11758188_x_at) / RFU NKD1 (11759106_at) / Fold change /veh NKD1 (11759106_at) / RFU SRD5A1 (11742802_a_at) / Fold change /veh SRD5A1 (11742802_a_at) / RFU TPSAB1 /// TPSB2 (11721975_s_at) / Fold change /veh TPSAB1 /// TPSB2 (11721975_s_at) / RFU GSTM3 (11746129_a_at) / Fold change /veh GSTM3 (11746129_a_at) / RFU IL23R (11737362_x_at) / Fold change /veh IL23R (11737362_x_at) / RFU TMEM51 (11727254_a_at) / Fold change /veh TMEM51 (11727254_a_at) / RFU PIWIL2 (11732686_x_at) / Fold change /veh PIWIL2 (11732686_x_at) / RFU ORM1 (11744905_x_at) / Fold change /veh ORM1 (11744905_x_at) / RFU CCDC152 (11743942_at) / Fold change /veh CCDC152 (11743942_at) / RFU ECM1 (11717891_a_at) / Fold change /veh ECM1 (11717891_a_at) / RFU IL23R (11748794_a_at) / Fold change /veh IL23R (11748794_a_at) / RFU TNFAIP8L3 (11732012_x_at) / Fold change /veh TNFAIP8L3 (11732012_x_at) / RFU MBOAT4 (11741988_at) / Fold change /veh MBOAT4 (11741988_at) / RFU 11764193_at / Fold change /veh 11764193_at / RFU TMEM53 (11763286_at) / Fold change /veh TMEM53 (11763286_at) / RFU MAGEB2 (11727129_at) / Fold change /veh MAGEB2 (11727129_at) / RFU TMEM200A (11744735_a_at) / Fold change /veh TMEM200A (11744735_a_at) / RFU CCDC152 (11751479_a_at) / Fold change /veh CCDC152 (11751479_a_at) / RFU FAM211A (11726209_a_at) / Fold change /veh FAM211A (11726209_a_at) / RFU RGS16 (11746705_a_at) / Fold change /veh RGS16 (11746705_a_at) / RFU VCAN (11755009_s_at) / Fold change /veh VCAN (11755009_s_at) / RFU RHOB (11743442_s_at) / Fold change /veh RHOB (11743442_s_at) / RFU RGS16 (11720943_a_at) / Fold change /veh RGS16 (11720943_a_at) / RFU RGS16 (11720944_at) / Fold change /veh RGS16 (11720944_at) / RFU, VPS4B / Fold change vs veh, VPS4B / RFU, CREB1 / Fold change vs veh, CREB1 / RFU, DNAJC13 / Fold change vs veh, DNAJC13 / RFU, GNAQ / Fold change vs veh, GNAQ / RFU, CDK5R1 / Fold change vs veh, CDK5R1 / RFU, ZRANB3 / Fold change vs veh, ZRANB3 / RFU, CUL4A / Fold change vs veh, CUL4A / RFU, CCNY / Fold change vs veh, CCNY / RFU, UFL1 / Fold change vs veh, UFL1 / RFU, COG3 / Fold change vs veh, COG3 / RFU, DIAPH2 / Fold change vs veh, DIAPH2 / RFU, SKA2 / Fold change vs veh, SKA2 / RFU, AFF3 / Fold change vs veh, AFF3 / RFU, LMF1 / Fold change vs veh, LMF1 / RFU, IPO11 / Fold change vs veh, IPO11 / RFU, DFFB / Fold change vs veh, DFFB / RFU, FOXP1 / Fold change vs veh, FOXP1 / RFU, CARD8 / Fold change vs veh, CARD8 / RFU, STRN3 / Fold change vs veh, STRN3 / RFU, ADK / Fold change vs veh, ADK / RFU, RASSF2 / Fold change vs veh, RASSF2 / RFU, WIPF1 / Fold change vs veh, WIPF1 / RFU, LARP1B / Fold change vs veh, LARP1B / RFU, RASA1 / Fold change vs veh, RASA1 / RFU, RB1 / Fold change vs veh, RB1 / RFU, PPFIA1 / Fold change vs veh, PPFIA1 / RFU, MAT2A / Fold change vs veh, MAT2A / RFU, CCT5 / Fold change vs veh, CCT5 / RFU, WDR92 / Fold change vs veh, WDR92 / RFU, CUX1 / Fold change vs veh, CUX1 / RFU, TTC7A / Fold change vs veh, TTC7A / RFU, TMEM135 / Fold change vs veh, TMEM135 / RFU, DEPTOR / Fold change vs veh, DEPTOR / RFU, CPM / Fold change vs veh, CPM / RFU, DNAJB6 / Fold change vs veh, DNAJB6 / RFU, CACNA2D3 / Fold change vs veh, CACNA2D3 / RFU, DTX4 / Fold change vs veh, DTX4 / RFU, TFCP2 / Fold change vs veh, TFCP2 / RFU, GMCL1 /// GMCL1P1 / Fold change vs veh, GMCL1 /// GMCL1P1 / RFU, AEBP2 / Fold change vs veh, AEBP2 / RFU, SNHG1 /// SNORD22 /// SNORD25 /// SNORD26 /// SNORD27 /// SNORD28 /// SNORD29 /// SNORD31 / Fold change vs veh, SNHG1 /// SNORD22 /// SNORD25 /// SNORD26 /// SNORD27 /// SNORD28 /// SNORD29 /// SNORD31 / Fold change (Aza/veh), C12orf56 (ProbeSet 11735607_a_at) / Fold change (ACY-1035/veh), C12orf56 (ProbeSet 11735607_a_at) / Fold change (Aza/veh), FGFR1OP (ProbeSet 11751329_s_at) / Fold change (ACY-1035/veh), FGFR1OP (ProbeSet 11751329_s_at) / Fold change (Aza/veh), VPS36 (ProbeSet 11739960_a_at) / Fold change (ACY-1035/veh), VPS36 (ProbeSet 11739960_a_at) / RFU SYPL1 (11715823_x_at) / Fold change /veh SYPL1 (11715823_x_at) / RFU IGFBP7 (11715501_s_at) / Fold change /veh IGFBP7 (11715501_s_at) / RFU REEP3 (11722064_at) / Fold change /veh REEP3 (11722064_at) / RFU IGLL1 (11728026_x_at) / Fold change /veh IGLL1 (11728026_x_at): dose or concentration left out as unconfirmed",
  "settings": "MV-4-11 cells, 48 hours",
  "data": [
    {"compound": "Nc1ccc(-c2cccs2)cc1NC(=O)c1ccc2c(c1)cc(C1CC1)n2CCN1CCOCC1", "note": "[ACY-1035]", "values": [
      {"measurement": "Fold change /veh CYB561 (11721691_x_at)", "value": 0.97}
    ]}
  ]
}
